In US20260297109A1, “COMPOUNDS AS SUMO ACTIVATING ENZYME INHIBITORS” (WIGEN BIOMEDICINE TECHNOLOGY (SHANGHAI) CO., LTD., priority 2022, published 2026):

Biological target: T1, SAE (Homo sapiens, UniProt Q9UBT2)
T1 construct: endogenous in cells; host or cells: HCT116
T1 sequence (Q9UBT2 1-640): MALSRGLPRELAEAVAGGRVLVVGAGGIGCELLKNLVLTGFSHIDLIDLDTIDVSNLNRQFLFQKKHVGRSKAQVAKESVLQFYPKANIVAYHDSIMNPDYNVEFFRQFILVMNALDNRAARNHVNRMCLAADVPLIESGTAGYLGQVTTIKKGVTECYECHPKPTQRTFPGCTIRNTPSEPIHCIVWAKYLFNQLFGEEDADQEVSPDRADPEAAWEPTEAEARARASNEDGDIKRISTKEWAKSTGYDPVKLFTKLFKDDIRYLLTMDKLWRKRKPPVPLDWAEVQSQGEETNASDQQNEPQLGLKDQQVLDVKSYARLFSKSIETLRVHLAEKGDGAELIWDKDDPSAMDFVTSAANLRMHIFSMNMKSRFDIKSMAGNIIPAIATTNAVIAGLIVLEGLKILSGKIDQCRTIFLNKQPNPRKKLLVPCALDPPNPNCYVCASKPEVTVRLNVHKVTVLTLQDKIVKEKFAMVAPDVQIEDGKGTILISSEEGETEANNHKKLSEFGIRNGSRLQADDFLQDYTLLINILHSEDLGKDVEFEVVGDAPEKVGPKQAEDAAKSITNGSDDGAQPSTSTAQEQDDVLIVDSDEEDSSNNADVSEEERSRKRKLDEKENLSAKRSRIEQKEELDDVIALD
T1 sequence (Q9UBE0 1-346): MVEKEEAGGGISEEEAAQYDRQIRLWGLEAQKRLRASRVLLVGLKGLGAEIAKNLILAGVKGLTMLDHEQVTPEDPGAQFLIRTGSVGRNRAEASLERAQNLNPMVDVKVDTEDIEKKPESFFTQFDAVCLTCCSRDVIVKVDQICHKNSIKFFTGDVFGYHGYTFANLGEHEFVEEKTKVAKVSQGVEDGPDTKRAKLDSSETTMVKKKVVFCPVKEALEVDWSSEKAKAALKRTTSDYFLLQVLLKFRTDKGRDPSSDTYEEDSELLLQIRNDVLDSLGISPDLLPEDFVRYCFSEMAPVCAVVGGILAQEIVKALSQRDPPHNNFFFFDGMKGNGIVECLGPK
Experiment: SUMO IF: in vitro inhibitory activity assay against SAE in HCT116 cells (SUMO-2/3 immunofluorescence)
Assay type: cell-based
Settings: class symbols, 6 h at 37° C.
Summary of the method: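 SUMO-2/3 immunofluorescence (18H8 primary 1:400, FITC secondary 1:300) was read after 6 h compound exposure of HCT116 cells at 37 °C. Inhibition rate and IC50 derive from signal relative to DMSO-treated wells.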

Row | SMILES | IC50 [nM]
1 | CC(C)N1Cc2sc(C(=O)c3cncnc3N[C@H]3C[C@H](O)[C@@H](COS(N)(=O)=O)[C@@H]3F)cc2C2(C1)NCCc1ccc(Cl)cc12 (some centres unmarked) [Compound 648] | ≤ 50
2 | NS(=O)(=O)OC[C@H]1[C@H](F)[C@@H](Nc2ncncc2C(=O)c2cc3c(s2)CN(CC(F)(F)F)CC32NCCc3ccc(Cl)cc32)C[C@@H]1O (some centres unmarked) [Compound 651] | ≤ 50
3 | C=CCN1Cc2sc(C(=O)c3cncnc3N[C@H]3C[C@H](O)[C@@H](COS(N)(=O)=O)[C@@H]3F)cc2C2(C1)NCCc1ccc(Cl)cc12 (some centres unmarked) [Compound 654] | ≤ 50
4 | C#CCN1Cc2sc(C(=O)c3cncnc3N[C@H]3C[C@H](O)[C@@H](COS(N)(=O)=O)[C@@H]3F)cc2C2(C1)NCCc1ccc(Cl)cc12 (some centres unmarked) [Compound 657] | ≤ 50
5 | [2H]C1([2H])Cc2ccc(Cl)cc2C2(CCCc3sc(C(=O)c4cncnc4N[C@H]4C[C@H](O)[C@@H](COS(N)(=O)=O)[C@@H]4F)cc32)N1 (some centres unmarked) [Compound 660] | 50 to 200
6 | [2H]C1([2H])CNC2(CCCc3sc(C(=O)c4cncnc4N[C@H]4C[C@H](O)[C@@H](COS(N)(=O)=O)[C@@H]4F)cc32)c2cc(Cl)ccc21 (some centres unmarked) [Compound 663] | ≤ 50
7 | Cc1ccc2c(c1)[C@@]1(CCCc3sc(C(=O)c4cncnc4N[C@H]4C[C@H](O)[C@@H](COS(N)(=O)=O)[C@@H]4F)cc31)NCC2 [Compound 666] | 50 to 200
8 | NS(=O)(=O)OC[C@H]1[C@H](F)[C@@H](Nc2ncncc2C(=O)c2cc3c(s2)CCC[C@]32NCCc3ccc(C4CC4)cc32)C[C@@H]1O [Compound 667] | 50 to 200
9 | C#Cc1ccc2c(c1)[C@@]1(CCCc3sc(C(=O)c4cncnc4N[C@H]4C[C@H](O)[C@@H](COS(N)(=O)=O)[C@@H]4F)cc31)NCC2 [Compound 668] | 50 to 200
10 | NS(=O)(=O)OC[C@H]1[C@H](F)[C@@H](Nc2ncncc2C(=O)c2cc3c(s2)CCC[C@]32NCCc3ccc(C(F)(F)F)cc32)C[C@@H]1O [Compound 669] | 50 to 200
11 | NS(=O)(=O)OC[C@H]1[C@H](F)[C@@H](Nc2ncncc2C(=O)c2cc3c(s2)CCC[C@]32NCCc3cc(F)c(F)cc32)C[C@@H]1O [Compound 670] | ≤ 50
12 | NS(=O)(=O)OC[C@H]1[C@H](F)[C@@H](Nc2ncncc2C(=O)c2cc3c(s2)CCC[C@]32NCCc3cc(F)c(Cl)cc32)C[C@@H]1O [Compound 671] | ≤ 50
13 | NS(=O)(=O)OC[C@H]1[C@H](F)[C@@H](Nc2ncncc2C(=O)c2cc3c(s2)CCC[C@]32NCCc3cc(Cl)c(Cl)cc32)C[C@@H]1O [Compound 672] | ≤ 50
14 | Cc1cc2c(cc1Cl)[C@@]1(CCCc3sc(C(=O)c4cncnc4N[C@H]4C[C@H](O)[C@@H](COS(N)(=O)=O)[C@@H]4F)cc31)NCC2 [Compound 673] | ≤ 50
15 | N#Cc1cc2c(cc1Cl)[C@@]1(CCCc3sc(C(=O)c4cncnc4N[C@H]4C[C@H](O)[C@@H](COS(N)(=O)=O)[C@@H]4F)cc31)NCC2 [Compound 674] | ≤ 50
16 | COc1cc2c(cc1Cl)[C@@]1(CCCc3sc(C(=O)c4cncnc4N[C@H]4C[C@H](O)[C@@H](COS(N)(=O)=O)[C@@H]4F)cc31)NCC2 [Compound 675] | 50 to 200
17 | NS(=O)(=O)OC[C@H]1[C@H](F)[C@@H](Nc2ncncc2C(=O)c2cc3c(s2)CCC[C@]32NCCc3cc(F)c(Cl)c(F)c32)C[C@@H]1O [Compound 676] | ≤ 50

Row | SMILES | IC50 [nM]
18 | NS(=O)(=O)OC[C@H]1[C@H](F)[C@@H](Nc2ncncc2C(=O)c2cc3c(s2)CCC[C@]32NCCc3cc(Cl)c(F)cc32)C[C@@H]1O [Compound 677] | ≤ 50
19 | NS(=O)(=O)OC[C@H]1[C@H](F)[C@@H](Nc2ncncc2C(=O)c2cc3c(s2)CCC[C@]32NCCc3ccncc32)C[C@@H]1O [Compound 678] | 50 to 200
20 | NS(=O)(=O)OC[C@H]1[C@H](F)[C@@H](Nc2ncncc2C(=O)c2cc3c(s2)CCC[C@]32NCCc3cc(Cl)ncc32)C[C@@H]1O [Compound 679] | 50 to 200
21 | NS(=O)(=O)OC[C@H]1[C@H](F)[C@@H](Nc2ncncc2C(=O)c2cc3c(s2)C=CC[C@]32NCCc3ccc(Cl)cc32)C[C@@H]1O [Compound 680] | ≤ 50
22 | NS(=O)(=O)OC[C@H]1[C@H](F)[C@@H](Nc2ncncc2C(=O)c2cc3c(s2)CC=C[C@]32NCCc3ccc(Cl)cc32)C[C@@H]1O [Compound 681] | ≤ 50
23 | NS(=O)(=O)OC[C@H]1[C@H](F)[C@@H](Nc2ncncc2C(=O)c2cc3c(s2)OCC[C@]32NCCc3ccc(Cl)cc32)C[C@@H]1O [Compound 682] | 50 to 200
24 | NS(=O)(=O)OC[C@H]1[C@H](F)[C@@H](Nc2ncncc2C(=O)c2cc3c(s2)CCC[C@]32NC3(CC3)Cc3ccc(Cl)cc32)C[C@@H]1O [Compound 684] | 50 to 200
25 | NS(=O)(=O)OC[C@H]1[C@H](F)[C@@H](Nc2ncncc2C(=O)c2cc3c(s2)CCC[C@@]32OCCc3ccc(Cl)cc32)C[C@@H]1O [Compound 685] | > 200
26 | NS(=O)(=O)OC[C@H]1[C@H](F)[C@@H](Nc2ncncc2C(=O)c2cc3c(s2)CCC[C@]32OCCc3ccc(Cl)cc32)C[C@@H]1O [Compound 686] | ≤ 50
27 | Cc1ccc2c(c1)[C@@]1(CCc3sc(C(=O)c4cncnc4N[C@H]4C[C@H](O)[C@@H](COS(N)(=O)=O)[C@@H]4F)cc31)NCC2 [Compound 687] | 50 to 200
28 | NS(=O)(=O)OC[C@H]1[C@H](F)[C@@H](Nc2ncncc2C(=O)c2cc3c(s2)CC[C@]32NCCc3ccc(C4CC4)cc32)C[C@@H]1O [Compound 688] | 50 to 200
29 | COc1ccc2c(c1)[C@@]1(CCc3sc(C(=O)c4cncnc4N[C@H]4C[C@H](O)[C@@H](COS(N)(=O)=O)[C@@H]4F)cc31)NCC2 [Compound 689] | 50 to 200
30 | NS(=O)(=O)OC[C@H]1[C@H](F)[C@@H](Nc2ncncc2C(=O)c2cc3c(s2)CC[C@]32NCCc3ccc(C(F)(F)F)cc32)C[C@@H]1O [Compound 690] | 50 to 200
31 | NS(=O)(=O)OC[C@H]1[C@H](F)[C@@H](Nc2ncncc2C(=O)c2cc3c(s2)CC[C@]32NCCc3cc(F)c(F)cc32)C[C@@H]1O [Compound 691] | ≤ 50
32 | NS(=O)(=O)OC[C@H]1[C@H](F)[C@@H](Nc2ncncc2C(=O)c2cc3c(s2)CC[C@]32NCCc3cc(F)c(Cl)cc32)C[C@@H]1O [Compound 692] | ≤ 50
33 | NS(=O)(=O)OC[C@H]1[C@H](F)[C@@H](Nc2ncncc2C(=O)c2cc3c(s2)CC[C@]32NCCc3cc(Cl)c(Cl)cc32)C[C@@H]1O [Compound 693] | ≤ 50

Same assay, conditions: numeric values, 6 h at 37° C.

Row | SMILES | IC50 [nM]
34 | CC(C)N1Cc2sc(C(=O)c3cncnc3N[C@H]3C[C@H](O)[C@@H](COS(N)(=O)=O)[C@@H]3F)cc2[C@@]2(C1)NCCc1ccc(Cl)cc12 [Compound 649] | > 1000
35 | CC(C)N1Cc2sc(C(=O)c3cncnc3N[C@H]3C[C@H](O)[C@@H](COS(N)(=O)=O)[C@@H]3F)cc2[C@]2(C1)NCCc1ccc(Cl)cc12 [Compound 650] | 21.7
36 | NS(=O)(=O)OC[C@H]1[C@H](F)[C@@H](Nc2ncncc2C(=O)c2cc3c(s2)CN(CC(F)(F)F)C[C@@]32NCCc3ccc(Cl)cc32)C[C@@H]1O [Compound 652] | > 1000
37 | NS(=O)(=O)OC[C@H]1[C@H](F)[C@@H](Nc2ncncc2C(=O)c2cc3c(s2)CN(CC(F)(F)F)C[C@]32NCCc3ccc(Cl)cc32)C[C@@H]1O [Compound 653] | 25.9
38 | C=CCN1Cc2sc(C(=O)c3cncnc3N[C@H]3C[C@H](O)[C@@H](COS(N)(=O)=O)[C@@H]3F)cc2[C@@]2(C1)NCCc1ccc(Cl)cc12 [Compound 655] | > 1000
39 | C=CCN1Cc2sc(C(=O)c3cncnc3N[C@H]3C[C@H](O)[C@@H](COS(N)(=O)=O)[C@@H]3F)cc2[C@]2(C1)NCCc1ccc(Cl)cc12 [Compound 656] | 25.1
40 | C#CCN1Cc2sc(C(=O)c3cncnc3N[C@H]3C[C@H](O)[C@@H](COS(N)(=O)=O)[C@@H]3F)cc2[C@@]2(C1)NCCc1ccc(Cl)cc12 [Compound 658] | > 1000
41 | C#CCN1Cc2sc(C(=O)c3cncnc3N[C@H]3C[C@H](O)[C@@H](COS(N)(=O)=O)[C@@H]3F)cc2[C@]2(C1)NCCc1ccc(Cl)cc12 [Compound 659] | 20.3
42 | [2H]C1([2H])Cc2ccc(Cl)cc2[C@]2(CCCc3sc(C(=O)c4cncnc4N[C@H]4C[C@H](O)[C@@H](COS(N)(=O)=O)[C@@H]4F)cc32)N1 [Compound 661] | > 1000
43 | [2H]C1([2H])Cc2ccc(Cl)cc2[C@@]2(CCCc3sc(C(=O)c4cncnc4N[C@H]4C[C@H](O)[C@@H](COS(N)(=O)=O)[C@@H]4F)cc32)N1 [Compound 662] | 23.5
44 | [2H]C1([2H])CN[C@]2(CCCc3sc(C(=O)c4cncnc4N[C@H]4C[C@H](O)[C@@H](COS(N)(=O)=O)[C@@H]4F)cc32)c2cc(Cl)ccc21 [Compound 665] | 20.6
